Measurements as given in patent publication US20200157145A1, “NEUTRAL-CATIONIC PEPTOIDS AND USES THEREOF” (Stealth BioTherapeutics Corp, priority 2018, published 2020).

Test system: isolated guinea pig heart exposed to global ischemia
Experiment: Cardiac ischemia-reperfusion injury in isolated perfused guinea pig heart (global no-flow ischemia 20 min, reperfusion 120 min)
Method: Procedures for the use of guinea pigs are in accordance with the guidelines established by the American Physiological Society. Adult male guinea pigs (200-300 g) will be anesthetized with a ketamine/xylazine cocktail (85/15 mg mL, respectively; ip delivery). Upon the absence of reflexes to ensure a deep plane of anesthesia, hearts will be excised via midline thoracotomy and immersed in ice-cold saline. Hearts will be cannulated by the aorta and perfused with a modified Krebs-Henseleit buffer containing (in mM): 118 NaCl, 24 NaHCO3, 4.75 KCl, 1.2 KH2PO4, 1.2 MgSO4, 2.0 CaCl2, and 10 glucose (gassed with 95/5% O2/CO2). Hearts will be placed in a buffer-filled perfusion chamber and maintained at 37° C. for the duration of the experiments.
Following the initiation of perfusion, hearts will be instrumented for the simultaneous observation of mechanical and electrical function. A buffer-filled latex balloon will be inserted into the left ventricle (via the mitral valve) for the measurement of left ventricular developed pressure, with balloon volume adjusted to establish an end-diastolic pressure of 5-8 mmHg. Three electrodes will be placed into the buffer-filled perfusion chamber for the measurement of volume-conducted ECG. A pre-established protocol of electrode placement will be utilized to obtain a signal analogous to Lead II of a typical 12-lead ECG. All physiological parameters will be continuously monitored and stored on a personal computer using commercially available software (Chart, AD Instruments).
After a 10-minute equilibration period, hearts will be divided into the following different treatment groups: 1. Control followed by I/R; 2. Administration of 1 nM ηArg-η2′6′-Dmt-ηLys-ηPhe-NH2 in the perfusate both before and after index ischemia; 3. Post-ischemic administration of 1 nM ηArg-η2′6′-Dmt-ηLys-ηPhe-NH2 using both a bolus dose (also 1 nM, administered immediately prior to reperfusion) and ηArg-η2′6′-Dmt-ηLys-ηPhe-NH2 in the reperfusion solution; 4. Positive control using ischemic preconditioning; 3 cycles of 5 min I/R before index ischemia).
Hearts will be exposed to global no-flow ischemia by stopping perfusion for 20 minutes. At the end of the index ischemia, static buffer from the perfusion lines will be washed out (via an accessory port proximal to the aortic cannula) and reperfusion ensued for 120 minutes. Administration of all compounds in the perfusate will be accomplished via dissolving the compound(s) in solution prior to administration. The reperfusion bolus dose will be delivered to the heart via syringe through a drug-delivery port just above the aortic cannula. At the end of the 2 h reperfusion protocol, the LV will be dissected, sliced into 5 mm-thick slices, incubated in triphenyltetrazolium chloride (TTC) for 10 minutes (37° C.), and digitally photographed for subsequent infarct size analysis. Infarct sizes are expressed as the infarcted area as a percentage of the LV (in the global ischemia model, the entire LV constitutes the zone-at-risk).

[1] = peptoid 0.01 nM, 0.1 nM, cyclosporin-A 0.2 μM

Substance: ηArg-η2′6′-Dmt-ηLys-ηPhe-NH2
- Incidence of VT/VF (ventricular tachycardia and/or fibrillation) (0.01 nM/0.1 nM(30 min R)): protection against the incidence of VT/VF
- Infarct size (infarcted area as a percentage of the LV) (1 nM or 0.1 nM or 0.001 nM or 0.01 nM/0.1 nM(30 min R), 20 min global ischemia, compared to control group): lower incidence of infarction (infarction size)
- Baseline coronary flow rates (groups receiving 0.01 nM): slightly lower than other groups
- Baseline heart rate [1]: no discernable effects
- Baseline left ventricular developed pressure [1]: no discernable effects
- Baseline rates of contraction/relaxation [1]: no discernable effects
- Coronary flow rates (peptoid 1 nM, 0.1 nM, 0.01 nM to 0.1 nM, cyclosporin-A 0.2 uM, whole time or at reperfusion, vs control): no differences in coronary flow rates
